The text below walks through data of patent publication US8143408B2, “N-(8-heteroaryltetrahydronaphtalene-2yl) or N-(5-heteroarylchromane-3-yl) carboxamide derivatives for the treatment of pain” (AstraZeneca AB, priority 2007, dated 2012).

The assay concerns the target T1, Nav1.7 voltage-gated sodium channel (Homo sapiens, UniProt Q15858).
T1 construct: Gene(s) encoding the full-length protein of the voltage-gated sodium channel of interest are cloned and expressed; expressed in transfected cells
Put plainly: Whole-cell voltage clamp electrophysiology assay. Format: cell-based. Conditions: cells stably expressing the voltage-gated sodium channel of interest. In outline:
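Cells expressing full-length channel, exposed to drug by integrated pipetting on automated patch-clamp platforms or by microperfusion in conventional whole-cell patch clamp. Channels activated by a voltage protocol depolarising from a defined holding potential; buffers per platform manufacturer.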

T1 sequence (Q15858 whole entry): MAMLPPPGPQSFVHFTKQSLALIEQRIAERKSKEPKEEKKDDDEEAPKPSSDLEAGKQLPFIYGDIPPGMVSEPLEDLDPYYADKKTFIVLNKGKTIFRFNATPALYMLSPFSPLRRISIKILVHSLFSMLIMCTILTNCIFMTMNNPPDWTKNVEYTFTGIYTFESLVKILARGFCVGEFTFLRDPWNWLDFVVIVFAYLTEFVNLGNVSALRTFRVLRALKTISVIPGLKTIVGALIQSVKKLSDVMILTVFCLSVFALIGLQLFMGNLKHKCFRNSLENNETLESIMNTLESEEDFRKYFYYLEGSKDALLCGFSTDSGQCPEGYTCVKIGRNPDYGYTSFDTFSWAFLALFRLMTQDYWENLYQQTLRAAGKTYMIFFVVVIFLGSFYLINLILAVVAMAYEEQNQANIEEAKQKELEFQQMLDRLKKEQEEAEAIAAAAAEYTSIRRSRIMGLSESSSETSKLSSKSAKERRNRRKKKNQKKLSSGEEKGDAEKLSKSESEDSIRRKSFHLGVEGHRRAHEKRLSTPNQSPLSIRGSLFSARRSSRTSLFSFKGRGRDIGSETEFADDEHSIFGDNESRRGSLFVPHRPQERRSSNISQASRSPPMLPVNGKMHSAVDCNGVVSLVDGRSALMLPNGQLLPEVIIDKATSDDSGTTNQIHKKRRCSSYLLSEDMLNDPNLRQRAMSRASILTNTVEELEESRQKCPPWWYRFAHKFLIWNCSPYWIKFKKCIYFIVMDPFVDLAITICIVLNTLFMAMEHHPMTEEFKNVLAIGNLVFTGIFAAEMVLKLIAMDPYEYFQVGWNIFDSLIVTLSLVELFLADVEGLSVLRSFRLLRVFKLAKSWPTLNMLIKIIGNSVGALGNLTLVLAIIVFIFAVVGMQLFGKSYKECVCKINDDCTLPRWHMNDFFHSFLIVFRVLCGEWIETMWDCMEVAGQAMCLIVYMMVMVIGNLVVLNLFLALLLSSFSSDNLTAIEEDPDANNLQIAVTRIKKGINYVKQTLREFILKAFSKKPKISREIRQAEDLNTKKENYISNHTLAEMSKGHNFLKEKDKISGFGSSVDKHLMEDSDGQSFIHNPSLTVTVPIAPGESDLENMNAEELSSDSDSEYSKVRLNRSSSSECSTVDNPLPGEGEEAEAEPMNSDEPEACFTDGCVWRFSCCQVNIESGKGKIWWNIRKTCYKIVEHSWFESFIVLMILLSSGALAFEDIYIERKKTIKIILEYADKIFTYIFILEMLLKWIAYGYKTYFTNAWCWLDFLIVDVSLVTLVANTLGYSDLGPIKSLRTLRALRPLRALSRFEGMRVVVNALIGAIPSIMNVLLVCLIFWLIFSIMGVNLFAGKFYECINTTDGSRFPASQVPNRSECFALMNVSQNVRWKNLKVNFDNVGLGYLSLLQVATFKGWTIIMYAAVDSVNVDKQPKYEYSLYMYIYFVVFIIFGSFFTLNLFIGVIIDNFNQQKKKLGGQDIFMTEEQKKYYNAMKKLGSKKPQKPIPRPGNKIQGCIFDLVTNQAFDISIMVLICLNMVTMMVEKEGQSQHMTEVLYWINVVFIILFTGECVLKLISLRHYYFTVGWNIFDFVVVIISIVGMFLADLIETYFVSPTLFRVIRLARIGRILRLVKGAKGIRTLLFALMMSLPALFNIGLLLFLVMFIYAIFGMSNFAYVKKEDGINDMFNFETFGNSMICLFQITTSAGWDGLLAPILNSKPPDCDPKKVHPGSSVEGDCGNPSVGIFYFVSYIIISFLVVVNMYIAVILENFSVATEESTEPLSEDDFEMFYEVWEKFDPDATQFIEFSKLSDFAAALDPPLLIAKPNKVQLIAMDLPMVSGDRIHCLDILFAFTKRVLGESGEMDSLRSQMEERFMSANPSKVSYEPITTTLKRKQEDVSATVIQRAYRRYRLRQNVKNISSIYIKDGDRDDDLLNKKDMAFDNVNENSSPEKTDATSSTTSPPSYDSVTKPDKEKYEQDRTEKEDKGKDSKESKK

In general, IC50 refers to the concentration that gives 50% inhibition. High values mean lower potency, low ones higher potency. Turning to `COCCOc1ccc(C(=O)N[C@@H]2COc3cccc(-c4ccc(F)nc4)c3C2)cn1` [Example 143, N-[(3S)-5-(6-fluoropyridin-3-yl)-3,4-dihydro-2H-chromen-3-yl]-6-(2-methoxyethoxy)nicotinamide], the IC50 is 1580 nM.

Take `COCCOc1ccc(C(=O)N[C@@H]2CCc3cccc(-c4cccnc4F)c3C2)cn1` [Example 144, N-[(2R)-8-(2-fluoropyridin-3-yl)-1,2,3,4-tetrahydronaphthalen-2-yl]-6-(2-methoxyethoxy)nicotinamide]: the 50% inhibitory concentration (IC50) is 3160 nM. This IC50 lies about 2-fold higher than the previous one.

Take `O=C(N[C@@H]1CCc2cccc(-c3cccnc3F)c2C1)c1ccc(OC2CCOCC2)nc1` [Example 145, N-[(2R)-8-(2-fluoropyridin-3-yl)-1,2,3,4-tetrahydronaphthalen-2-yl]-6-(tetrahydro-2H-pyran-4-yloxy)nicotinamide]: the half-maximal inhibitory concentration (IC50) was 200 nM. This IC50 lies about 16-fold lower than the previous one.

As for `O=C(N[C@@H]1CCc2cccc(-c3ccnnc3)c2C1)c1ccc(OC2CCCOC2)nc1` (stereo partly drawn) [Example 146, N-[(2R)-8-pyridazin-4-yl-1,2,3,4-tetrahydronaphthalen-2-yl]-6-(tetrahydro-2H-pyran-3-yloxy)nicotinamide], the IC50 was 7940 nM. Against the preceding compound, the IC50 is about 40-fold higher.

On to `Cc1ccc(-c2cccc3c2C[C@H](NC(=O)c2cnc(OC4CCCOC4)nc2)CC3)cn1` (stereo partly drawn) [Example 147, N-[(2R)-8-(6-methylpyridin-3-yl)-1,2,3,4-tetrahydronaphthalen-2-yl]-2-(tetrahydro-2H-pyran-3-yloxy)pyrimidine-5-carboxamide], for which the half-inhibitory concentration (IC50) is 1580 nM.

On to `CCCCn1ccc(C(=O)N[C@@H]2COc3cccc(-c4cnc(OC)c(F)c4)c3C2)cc1=O` [Example 148, 1-butyl-N-[(3S)-5-(5-fluoro-6-methoxypyridin-3-yl)-3,4-dihydro-2H-chromen-3-yl]-2-oxo-1,2-dihydropyridine-4-carboxamide], for which the midpoint of inhibition, the IC50, lay at 794 nM.

`COc1ncc(-c2cccc3c2C[C@H](NC(=O)c2cnc(OC4CCOC4)nc2)CO3)cc1F` (stereo partly drawn) [Example 149, N-[(3S)-5-(5-fluoro-6-methoxypyridin-3-yl)-3,4-dihydro-2H-chromen-3-yl]-2-(tetrahydrofuran-3-yloxy)pyrimidine-5-carboxamide] gave an IC50 of 6310 nM. This IC50 is about 7.9-fold higher than that of the compound before.

With `CCCCn1ccc(C(=O)N[C@@H]2COc3cccc(-c4cnc(OC)nc4)c3C2)cc1=O` [Example 150, 1-butyl-N-[(3S)-5-(2-methoxypyrimidin-5-yl)-3,4-dihydro-2H-chromen-3-yl]-2-oxo-1,2-dihydropyridine-4-carboxamide], the half-maximal inhibitory concentration (IC50) is 1000 nM.

Regarding `Cc1cc(-c2cccc3c2C[C@H](NC(=O)c2ccc(OC4CCCOC4)nc2)CO3)cnc1F` (stereo partly drawn) [Example 151, N-[(3S)-5-(6-fluoro-5-methylpyridin-3-yl)-3,4-dihydro-2H-chromen-3-yl]-6-(tetrahydro-2H-pyran-3-yloxy)nicotinamide], 251 nM corresponded to half-maximal inhibition (IC50).

`CCCCn1ccc(C(=O)N[C@@H]2COc3cccc(-c4cnc(F)c(C)c4)c3C2)cc1=O` [Example 152, 1-butyl-N-[(3S)-5-(6-fluoro-5-methylpyridin-3-yl)-3,4-dihydro-2H-chromen-3-yl]-2-oxo-1,2-dihydropyridine-4-carboxamide] gave an IC50 of 1260 nM.

`Cc1cc(-c2cccc3c2C[C@H](NC(=O)c2cnc(OC4CCCOC4)nc2)CO3)cnc1F` (stereo partly drawn) [Example 153, N-[(3S)-5-(6-fluoro-5-methylpyridin-3-yl)-3,4-dihydro-2H-chromen-3-yl]-2-(tetrahydro-2H-pyran-3-yloxy)pyrimidine-5-carboxamide] gave a half-inhibitory concentration (IC50) of 631 nM. This IC50 lies about 2-fold lower than the previous one.

`COc1ncc(-c2cccc3c2C[C@@H](NC(=O)c2ccc(OC4CCOCC4)nc2)CC3)cn1` [Example 154, N-[(2S)-8-(2-methoxypyrimidin-5-yl)-1,2,3,4-tetrahydronaphthalen-2-yl]-6-(tetrahydro-2H-pyran-4-yloxy)nicotinamide]: the IC50 was 6310 nM.

Regarding `Cc1ncc(-c2cccc3c2C[C@H](NC(=O)c2ccc(OC4CCOCC4)nc2)CO3)cn1` [Example 155, N-[(3S)-5-(2-methylpyrimidin-5-yl)-3,4-dihydro-2H-chromen-3-yl]-6-(tetrahydro-2H-pyran-4-yloxy)nicotinamide], the half-inhibitory concentration (IC50) was 1260 nM.

For `COc1ncc(-c2cccc3c2C[C@H](NC(=O)c2ccc(OC4CCOCC4)nc2)CC3)cn1` [Example 156, N-[(2R)-8-(2-methoxypyrimidin-5-yl)-1,2,3,4-tetrahydronaphthalen-2-yl]-6-(tetrahydro-2H-pyran-4-yloxy)nicotinamide], the 50% inhibitory concentration (IC50) was 2000 nM.

Consider `COc1ncc(-c2cccc3c2C[C@H](NC(=O)c2ccc(OC4CCCOC4)nc2)CO3)cn1` (stereo partly drawn) [Example 157, N-[(3S)-5-(2-methoxypyrimidin-5-yl)-3,4-dihydro-2H-chromen-3-yl]-6-(tetrahydro-2H-pyran-3-yloxy)nicotinamide], for which it took 1000 nM to reach half-maximal inhibition (IC50).

For the compound `COc1ncc(-c2cccc3c2C[C@H](NC(=O)c2ccc(OC4CCOC4)nc2)CO3)cn1` (stereo partly drawn) [Example 158, N-[(3S)-5-(2-methoxypyrimidin-5-yl)-3,4-dihydro-2H-chromen-3-yl]-6-(tetrahydrofuran-3-yloxy)nicotinamide], the midpoint of inhibition, the IC50, lay at 3980 nM.

Regarding `Cc1ncc(-c2cccc3c2C[C@H](NC(=O)c2ccc(OC4CCOC4)nc2)CC3)cn1` (stereo partly drawn) [Example 159, N-[(2R)-8-(2-methylpyrimidin-5-yl)-1,2,3,4-tetrahydronaphthalen-2-yl]-6-(tetrahydrofuran-3-yloxy)nicotinamide], the 50% inhibitory concentration (IC50) was 6310 nM.

For `Cc1ncc(-c2cccc3c2C[C@H](NC(=O)c2ccc(OC4CCCOC4)nc2)CC3)cn1` (stereo partly drawn) [Example 160, N-[(2R)-8-(2-methylpyrimidin-5-yl)-1,2,3,4-tetrahydronaphthalen-2-yl]-6-(tetrahydro-2H-pyran-3-yloxy)nicotinamide], the concentration for half-maximal inhibition (IC50) is 3160 nM.

`Cc1ncc(-c2cccc3c2C[C@H](NC(=O)c2ccc(OCC4CCCO4)nc2)CC3)cn1` (stereo partly drawn) [Example 161, N-[(2R)-8-(2-methylpyrimidin-5-yl)-1,2,3,4-tetrahydronaphthalen-2-yl]-6-(tetrahydrofuran-2-ylmethoxy)nicotinamide] gave an IC50 of 7940 nM.

For the compound `COc1ncc(-c2cccc3c2C[C@H](NC(=O)c2ccc(OCCOCC(F)(F)F)nc2)CC3)cn1` [Example 162, N-[(2R)-8-(2-methoxypyrimidin-5-yl)-1,2,3,4-tetrahydronaphthalen-2-yl]-6-[2-(2,2,2-trifluoroethoxy)ethoxy]nicotinamide], the midpoint of inhibition, the IC50, lay at 501 nM.

In turn, `COc1ncc(-c2cccc3c2C[C@H](NC(=O)c2ccc(OCCOCC(F)(F)F)nc2)CO3)cn1` [Example 163, N-[(3S)-5-(2-methoxypyrimidin-5-yl)-3,4-dihydro-2H-chromen-3-yl]-6-[2-(2,2,2-trifluoroethoxy)ethoxy]nicotinamide] showed an IC50 of 39.8 nM.

Turning to `O=C(N[C@@H]1CCc2cccc(-c3cccnc3F)c2C1)c1ccc(OCC2COCCO2)nc1` (stereo partly drawn) [Example 164, 6-(1,4-dioxan-2-ylmethoxy)-N-[(2R)-8-(2-fluoropyridin-3-yl)-1,2,3,4-tetrahydronaphthalen-2-yl]nicotinamide], the IC50 was 1000 nM.

In turn, `COc1cc(-c2cccc3c2C[C@H](NC(=O)c2ccc(OCC4COCCO4)nc2)CO3)ccn1` (stereo partly drawn) [Example 165, 6-(1,4-dioxan-2-ylmethoxy)-N-[(3S)-5-(2-methoxypyridin-4-yl)-3,4-dihydro-2H-chromen-3-yl]nicotinamide] showed an IC50 of 158 nM. This IC50 is about 6.3-fold lower than that of the compound before.

As for `COc1ncc(-c2cccc3c2C[C@H](NC(=O)c2ccc(OCC4COCCO4)nc2)CO3)cc1F` (stereo partly drawn) [Example 166, 6-(1,4-dioxan-2-ylmethoxy)-N-[(3S)-5-(5-fluoro-6-methoxypyridin-3-yl)-3,4-dihydro-2H-chromen-3-yl]nicotinamide], the concentration for half-maximal inhibition (IC50) was 501 nM.

As to `COc1ncc(-c2cccc3c2C[C@H](NC(=O)c2ccc(C(=O)NCCC(F)(F)F)nc2)CC3)cn1` [Example 167, N^5-[(2R)-8-(2-methoxypyrimidin-5-yl)-1,2,3,4-tetrahydronaphthalen-2-yl]-N^2-(3,3,3-trifluoropropyl)pyridine-2,5-dicarboxamide], the IC50 is 398 nM.

On to `CC#CCOc1ccc(C(=O)N[C@@H]2CCc3cccc(-c4cnc(OC)nc4)c3C2)cn1` [Example 168, 6-(but-2-yn-1-yloxy)-N-[(2R)-8-(2-methoxypyrimidin-5-yl)-1,2,3,4-tetrahydronaphthalen-2-yl]nicotinamide], for which half-maximal inhibition (IC50) was put at 6310 nM.

For the compound `O=C(N[C@@H]1COc2cccc(-c3ccc4nccn4c3)c2C1)c1ccc(OC2CCOCC2)nc1` [Example 169, N-[(3S)-5-imidazo[1,2-a]pyridin-6-yl-3,4-dihydro-2H-chromen-3-yl]-6-(tetrahydro-2H-pyran-4-yloxy)nicotinamide], the IC50 was 200 nM.

On to `COc1ncc(-c2cccc3c2C[C@H](NC(=O)c2ccc(C(=O)NC4CCC(F)(F)CC4)nc2)CO3)cn1` [Example 170, N^2-(4,4-difluorocyclohexyl)-N^5-[(3S)-5-(2-methoxypyrimidin-5-yl)-3,4-dihydro-2H-chromen-3-yl]pyridine-2,5-dicarboxamide], for which the IC50 is 251 nM.

`COc1ncc(-c2cccc3c2C[C@H](NC(=O)c2ccc(C(=O)NCCCC(F)(F)F)nc2)CO3)cn1` [Example 171, N^5-[(3S)-5-(2-methoxypyrimidin-5-yl)-3,4-dihydro-2H-chromen-3-yl]-N^2-(4,4,4-trifluorobutyl)pyridine-2,5-dicarboxamide] gave a 50% inhibitory concentration (IC50) of 126 nM.

With `COc1ncc(-c2cccc3c2C[C@H](NC(=O)c2ccnc(OCCOCC(F)(F)F)c2)CO3)cn1` [Example 172, N-[(3S)-5-(2-methoxypyrimidin-5-yl)-3,4-dihydro-2H-chromen-3-yl]-2-[2-(2,2,2-trifluoroethoxy)ethoxy]isonicotinamide], the IC50 was 200 nM. Against the preceding compound, the IC50 is about 1.6-fold higher.

`Cc1ncc(-c2cccc3c2C[C@H](NC(=O)c2ccc(C(=O)N(C)CC(F)(F)F)nc2)CO3)cn1` [Example 173, N^2-methyl-N^5-[(3S)-5-(2-methylpyrimidin-5-yl)-3,4-dihydro-2H-chromen-3-yl]-N^2-(2,2,2-trifluoroethyl)pyridine-2,5-dicarboxamide] gave a 50% inhibitory concentration (IC50) of 1580 nM.
